# Assay results as given in US20040002505A1, “Medicinal compositions for cocominant use as anticancer agent” (priority 2000, published 2004).
# Structures can show the parent of a compound that is named as a salt. Where two headings read alike, the source gives them in different places.
# Legend:
# [1] = test system: Human colon cancer strain Colo320D.M.; assay: Combined use of E7070 and 5-FU in human colon cancer Colo320D.M. xenograft model; settings: alone or simultaneous; for Toxicity Dead/Treated: E7070 30 mg/kg/day day 1-5, 5-FU 60 mg/kg/day day 1, 5, 9
# From the text: (§1) Cancer Chemother Pharmacol. 1992;30(1):25-30; (ii)Enhancement of vincristine cytotoxicity in drug-resistant cells by simultaneous treatment with onconase, an antitumor ribonuclease. J Natl Cancer Inst. 1996 June 5;88(11):747-53; (iii)Effects of growth hormone and testosterone on cortical bone formation and bone density in aged orchiectomized rats. Bone. 1999 May;24(5):491-7).
# [2] = test system: Human colon cancer strain HCT15; settings: alone or in combination; for Toxicity Dead/Treated: E7070 30 mg/kg/day QDx5, CPT-11 75 mg/kg/day Q4Dx3; for Tx4 (days) mean ± S.D.: HCT15 xenograft, nude mice, iv, E7070 30 mg/kg/day QDx5 (day 1-5), CPT-11 75 mg/kg/day Q4Dx3 (day 1, 5, 9)
# From the text: as §1
# [3] = test system: Human colon cancer strain SW620; settings: E7070 25 mg/kg/day day 1-5, CPT-11 62.5 mg/kg/day day 1, 5, 9, alone or simultaneous
# From the text: as §1
# [4] = test system: Human non-small cell lung cancer LU-99; settings: alone or simultaneous
# From the text: as §1
# [5] = test system: Human colon cancer strain HCT15; assay: Combined use of E7070 and MMC in human colon cancer HCT15 xenograft model; settings: alone or in combination; for Toxicity Dead/Treated: E7070 25 mg/kg/day QDx5, MMC 4.19 mg/kg/day QDx1; for Tx4 (days) mean ± S.D.: HCT15 xenograft, nude mice, iv, E7070 25 mg/kg/day QDx5 (day 1-5; combination line prints 30 mg/kg/day), MMC 4.19 mg/kg/day QDx1 (day 1)
# From the text: as §1
# [6] = used in combination with E7070; model and data not given
# [7] = test system: Human colon cancer strain HCT15; assay: Combined use of E7070 and Gemcitabine in human colon cancer HCT15 xenograft model; type: in vivo, nude mouse; settings: used in combination with E7070; no data given
# From the text: as §1
# [8] = E7070 25 mg/kg/day day 1-5, CDDP 7.5 mg/kg/day day 1
molecule,measurement,setting,value
"O=c1[nH]cc(F)c(=O)[nH]1 [5-FU, 5-fluoro-2,4-(1H,3H)-pyrimidinedione]",Tx4 (days) mean ± S.D.,"[1]; Colo320D.M. xenograft, nude mice, iv, E7070 30 mg/kg/day QDx5 (day 1-5), 5-FU 60 mg/kg/day Q4Dx3 (day 1, 5, 9)",10.0 ± 0.7 days
same,Toxicity Dead/Treated,[1],0/6
"CCc1c2c(nc3ccc(OC(=O)N4CCC(N5CCCCC5)CC4)cc13)-c1cc3c(c(=O)n1C2)COC(=O)[C@]3(O)CC [CPT-11, [1,4′-Bipiperidine]-1′-carboxylic acid (S)-4,11-diethyl-3,4,12,14-tetrahydro-4-hydroxy-3,14-dioxo-1H-pyrano-[3′,4′:6,7]-indolizino[1,2-b]quinolin-9-yl ester Hydrochloride trihydrate]",Toxicity Dead/Treated,[2],0/6
same,Tx4 (days) mean ± S.D.,[2],17.8 ± 1.0 days
same,Toxicity Dead/Treated,[3],0/6
"NS(=O)(=O)c1ccc(S(=O)(=O)Nc2cccc3c(Cl)c[nH]c23)cc1 [E7070, N-(3-chloro-1H-indol-7-yl)-4-sulfamoylbenzenesulfonamide]",Toxicity Dead/Treated,[2],0/6
same,Tx4 (days) mean ± S.D.,[2],18.7 ± 2.0 days
same,Toxicity Dead/Treated,[3],0/6
same,mRTV mean ± S.D.,"[3]; minimum relative tumor volume, day of minimum in parentheses in the cell",0.76 ± 0.42(12)
same,Toxicity Dead/Treated,[4]; [8],0/6
same,mRTV mean ± S.D.,"[4]; minimum relative tumor volume, E7070 25 mg/kg/day day 1-5, CDDP 7.5 mg/kg/day day 1",0.75 ± 0.16
same,Toxicity Dead/Treated,[5],0/6
same,Tx4 (days) mean ± S.D.,[5],12.7 ± 2.2 days
same,Toxicity Dead/Treated,[1],0/6
"CO[C@@]12[C@H](COC(N)=O)C3=C(C(=O)C(C)=C(N)C3=O)N1C[C@@H]1N[C@@H]12 [MMC, [1aS-(1aα,8β,8aα,8bα)]-6-amino-8-[[(aminocarbonyl)oxy]methyl]1,1a,2,8,8a,8b-hexahydro-8a-methoxy-5-methylazirino[2′,3′:3,4]pyrrolo[1,2-a]indole-4,7-dione]",Toxicity Dead/Treated,[5],0/6
same,Tx4 (days) mean ± S.D.,[5],16.2 ± 3.4 days
"COc1cccc2c1C(=O)c1c(O)c3c(c(O)c1C2=O)C[C@@](O)(C(=O)CO)C[C@@H]3O[C@H]1C[C@H](N)[C@H](O)[C@H](C)O1 [doxorubicin, 10-[(3-amino-2,3,6-trideoxy-α-L-lyxo-hexopyranosyl)oxy]-7,8,9,10-tetrahydro-6,8,11-trihydroxy-8-(hydroxyacetyl)-1-methoxy-(8S-cis)-5,12-naphthacenedione]","synergistic effect, antitumor activity",[6],excellent antitumor activity
"Cl.Nc1ccn([C@@H]2O[C@H](CO)[C@@H](O)C2(F)F)c(=O)n1 [gemcitabine hydrochloride, 2′-deoxy-2′,2′-difluoro-cytidine hydrochloride]","synergistic effect, antitumor activity",[7],excellent antitumor activity
cis-diamminedichloroplatinum [CDDP],Toxicity Dead/Treated,[4]; [8],0/6
same,Tx4 (days) mean ± S.D.,"[4]; LU-99 xenograft, nude mice, iv, E7070 25 mg/kg/day QDx5 (day 1-5), CDDP 7.5 mg/kg/day QDx1 (day 1)",10.7 ± 0.5 days
same,Toxicity mRBW mean,"[4]; minimum relative body weight, day of minimum in parentheses in the cell, E7070 25 mg/kg/day day 1-5, CDDP 7.5 mg/kg/day day 1",0.95(5)
